pIC50: −log10 of the molar value.

For this assay, the system named is LTB4 release from neutrophils. Nature of the assay: A23187 induced LTB4 release. In kind it is cell-based. As to conditions: Neutrophil; neutrophils from healthy human donors, test drug 1 hour at 37° C., 0.3 μg/ml A23187 10 min, LTB4 ELISA; range over the group of compounds; read-out: IC50, percent inhibition of LTB4 release. As to the method:
The compounds of the present invention are tested in one or more of the assays described herein. Standard assays are used to evaluate activity of compounds in present invention on inflammatory cells. Attenuation of agonist-induced release of lipid mediator of neutrophil chemotaxis, leukotriene B4 (LTB4), is used to evaluate inhibitory effect on neutrophils.
Venous blood was collected from healthy human donors using heparin as an anti-coagulant. Neutrophils were isolated from freshly drawn blood after dextran sedimentation and ficoll separation (Eur J. Biochem. 169, 175, 1987). 180 μl of the of neutrophil suspension (0.2×10^6 cells/ml) was taken and added 19 μL of Hank's Buffer salt solution along with 1 μL of the test drug (200 times concentrated) in a 24 well plate and incubated at 37° C. for 1 hour. 3 minutes before the end of test compound incubation, 0.25 mM Ca^++/Mg^++ were added. Then, 0.3 μg/ml A23187 (Sigma Chem, USA) was added and incubated for further 10 min at 37° C. The reaction was stopped by adding 80 μL of cold methanol and centrifuged to remove cell debris (J Pharmacol Exp Ther. 297:267, 2001). The samples were analysed for LTB4 release using LTB4 ELISA kits (Assay Design Inc., USA). The amount of LTB4 released was quantified and percent inhibition of LTB4 release was calculated with respect to the difference between the A23187 stimulated and negative control cells, to compute IC50 values.
(In an ELISA, binding on a coated surface is turned into a signal by an enzyme label.)
A word on the pIC50: it is the negative decadic logarithm of the IC50, by convention in mol/L. In the case of `CCCCCCCOCC12OC(C)C(C)(OC(=O)NS(=O)(=O)c3ccc(Cl)cc3)C1OC(C)(C)O2` [Compound 116, (4ξ)-1-O-Heptyl-2,3-O-isopropylidene-4-C-methyl-4-O-[{[(4-chlorophenyl)sulphonyl]amino}-carbonyl]-6-deoxy-α-L-erythro-hex-2-ulofuranoside], the pIC50 is at most 5.89.

`CCCCCCCOCC12OC(C)C(C)(OC(=O)NS(=O)(=O)c3ccc(F)cc3)C1OC(C)(C)O2` [Compound 118, (4ξ)-1-O-Heptyl-2,3-O-isopropylidene-4-C-methyl-4-O-[{[(4-fluorophenyl)sulphonyl]amino}-carbonyl]-6-deoxy-α-L-erythro-hex-2-ulofuranoside]: the negative logarithm of the IC50 (pIC50) is at most 5.89.

For `CCCCCCCCCCCCOCC12OC(CNC(=O)c3ccncc3)C(O)C1OC(C)(C)O2` [Compound 78, 1-O-Dodecyl-2,3-O-isopropylidene-6-deoxy-6-{[(pyridin-4-yl)-carbonyl]-amino}-α-L-sorbofuranoside], the pIC50 was at most 5.89.

As for `CCCCCCCCCCCCOCC12OC(CNC(=O)Cc3ccc(OC(F)(F)F)cc3)C(O)C1OC(C)(C)O2` [Compound 106, 1-O-Dodecyl-2,3-O-isopropylidene-6-deoxy-6-{[(4-trifluoromethoxyphenyl)acetyl]amino}-α-L-sorbofuranoside], the pIC50 is at most 5.89.

Take `CCCCCCCCCCCCOCC12OC(CNC(=O)Cc3ccc(F)cc3)C(O)C1OC(C)(C)O2` [Compound 69, 1-O-Dodecyl-2,3-O-isopropylidene-6-deoxy-6-{[(4-fluorophenyl)acetyl}amino]-α-L-sorbofuranoside]: the pIC50 was at most 5.89.

For `CCCCCCCOCC12OC(C)C(C)(OC(=O)NS(=O)(=O)c3ccccc3)C1OC(C)(C)O2` [Compound 117, (4ξ)-1-O-Heptyl-2,3-O-isopropylidene-4-C-methyl-4-O-[{[phenylsulphonyl]amino}carbonyl]-6-deoxy-α-L-erythro-hex-2-ulofuranoside], the pIC50 is at most 5.89.

Consider `CCCCCCCCCCCCOCC12OC(CNC(=O)Cc3ccc(Cl)c(Cl)c3)C(O)C1OC(C)(C)O2` [Compound 94, 1-O-Dodecyl-2,3-O-isopropylidene-6-deoxy-6-{[(3,4-dichlorophenyl)acetyl]amino}-α-L-sorbofuranoside], for which the negative-log IC50 (pIC50) was at most 5.89.
